Test results as given in publication PMC11728000, “Antitumor Activity and Multi-Target Mechanism of Phenolic Schiff Bases Bearing Methanesulfonamide Fragments: Cell Cycle Analysis and a Molecular Modeling Study” (International Journal of Molecular Sciences, 2024).
Where two headings read alike, the source gives them in different places.

What was measured:
RXF 393 = system: RXF 393; design: method as in https://dtp.cancer.gov/dtpstandard/dwindex/index.jsp; details: ref https://dtp.cancer.gov/dtpstandard/dwindex/index.jsp; cited from earlier work
BT-549 = system: BT-549; design: method as in https://dtp.cancer.gov/dtpstandard/dwindex/index.jsp; details: ref https://dtp.cancer.gov/dtpstandard/dwindex/index.jsp; cited from earlier work
SF-539 = system: SF-539; design: method as in https://dtp.cancer.gov/dtpstandard/dwindex/index.jsp; details: ref https://dtp.cancer.gov/dtpstandard/dwindex/index.jsp; cited from earlier work
K-562 = system: K-562; design: method as in https://dtp.cancer.gov/dtpstandard/dwindex/index.jsp; details: ref https://dtp.cancer.gov/dtpstandard/dwindex/index.jsp; cited from earlier work
COLO 205 = system: COLO 205; design: method as in https://dtp.cancer.gov/dtpstandard/dwindex/index.jsp; details: ref https://dtp.cancer.gov/dtpstandard/dwindex/index.jsp; cited from earlier work
HOP-62 = system: HOP-62; design: method as in https://dtp.cancer.gov/dtpstandard/dwindex/index.jsp; details: ref https://dtp.cancer.gov/dtpstandard/dwindex/index.jsp; cited from earlier work
[1] = system: Renal Cancer subpanel tumor cell lines; details: cited from earlier work
HCT-15 = system: HCT-15; design: method as in https://dtp.cancer.gov/dtpstandard/dwindex/index.jsp; details: ref https://dtp.cancer.gov/dtpstandard/dwindex/index.jsp; cited from earlier work
SNB-19 = system: SNB-19; design: method as in https://dtp.cancer.gov/dtpstandard/dwindex/index.jsp; details: ref https://dtp.cancer.gov/dtpstandard/dwindex/index.jsp; cited from earlier work
SF-295 = system: SF-295; design: method as in https://dtp.cancer.gov/dtpstandard/dwindex/index.jsp; details: ref https://dtp.cancer.gov/dtpstandard/dwindex/index.jsp; cited from earlier work
[2] = system: Melanoma subpanel tumor cell lines; details: cited from earlier work
SR = system: SR; design: method as in https://dtp.cancer.gov/dtpstandard/dwindex/index.jsp; details: ref https://dtp.cancer.gov/dtpstandard/dwindex/index.jsp; cited from earlier work
HS 578T = system: HS 578T; design: method as in https://dtp.cancer.gov/dtpstandard/dwindex/index.jsp; details: ref https://dtp.cancer.gov/dtpstandard/dwindex/index.jsp; cited from earlier work
OVCAR-4 = system: OVCAR-4; design: method as in https://dtp.cancer.gov/dtpstandard/dwindex/index.jsp; details: ref https://dtp.cancer.gov/dtpstandard/dwindex/index.jsp; cited from earlier work
SK-OV-3 = system: SK-OV-3; design: method as in https://dtp.cancer.gov/dtpstandard/dwindex/index.jsp; details: ref https://dtp.cancer.gov/dtpstandard/dwindex/index.jsp; cited from earlier work
PC-3 = system: PC-3; design: method as in https://dtp.cancer.gov/dtpstandard/dwindex/index.jsp; details: ref https://dtp.cancer.gov/dtpstandard/dwindex/index.jsp; cited from earlier work
T-47D = system: T-47D; design: method as in https://dtp.cancer.gov/dtpstandard/dwindex/index.jsp; details: ref https://dtp.cancer.gov/dtpstandard/dwindex/index.jsp; cited from earlier work
[3] = system: NSC Lung Cancer subpanel tumor cell lines; details: cited from earlier work
M14 = system: M14; design: method as in https://dtp.cancer.gov/dtpstandard/dwindex/index.jsp; details: ref https://dtp.cancer.gov/dtpstandard/dwindex/index.jsp; cited from earlier work
UACC-62 = system: UACC-62; design: method as in https://dtp.cancer.gov/dtpstandard/dwindex/index.jsp; details: ref https://dtp.cancer.gov/dtpstandard/dwindex/index.jsp; cited from earlier work
SW-620 = system: SW-620; design: method as in https://dtp.cancer.gov/dtpstandard/dwindex/index.jsp; details: ref https://dtp.cancer.gov/dtpstandard/dwindex/index.jsp; cited from earlier work
MOLT-4 = system: MOLT-4; design: method as in https://dtp.cancer.gov/dtpstandard/dwindex/index.jsp; details: ref https://dtp.cancer.gov/dtpstandard/dwindex/index.jsp; cited from earlier work
SK-MEL-2 [4] = system: SK-MEL-2; design: method as in https://dtp.cancer.gov/dtpstandard/dwindex/index.jsp; details: ref https://dtp.cancer.gov/dtpstandard/dwindex/index.jsp; cited from earlier work
[5] = system: Prostate Cancer subpanel tumor cell lines; details: cited from earlier work
RPMI-8226 = system: RPMI-8226; design: method as in https://dtp.cancer.gov/dtpstandard/dwindex/index.jsp; details: PRMI-8226; ref https://dtp.cancer.gov/dtpstandard/dwindex/index.jsp; cited from earlier work
NCI-H322M = system: NCI-H322M; design: method as in https://dtp.cancer.gov/dtpstandard/dwindex/index.jsp; details: ref https://dtp.cancer.gov/dtpstandard/dwindex/index.jsp; cited from earlier work
DU-145 = assay: NCI anticancer screening (SRB), Prostate Cancer subpanel; type: cell-based, human; details: for GI%: 10.0 µM in one dose
SK-MEL-2 [6] = assay: NCI anticancer screening (SRB), Melanoma subpanel; type: cell-based, human; details: for GI%: 10.0 µM in one dose
SN12C = assay: NCI anticancer screening (SRB), Renal Cancer subpanel; type: cell-based, human; details: for GI%: 10.0 µM in one dose
Bax = assay: Apoptotic markers assay, Bax expression in MCF-7 cells; type: cell-based, human; details: MCF-7 cells treated at IC50 concentrations; vs untreated control = 1
Description: We measured the apoptosis promoter Bax levels, the apoptosis inhibitor Bcl−2, and the apoptosis coordination enzymes caspase-8 and caspase-9 [32].
The apoptotic marker method was carried out using the reported procedure using MCF-7, the cancer cell line (Supplementary Materials). […]
(cells are Plated […]
in a density of 1.2-1.8 X 10,000 cells/well in a volume of 100 µL complete growth medium + 100 µL of the tested compound per well in a 96-well plate for 24/48 h before the enzyme assay).
8. Evaluation of Bax and Bcl-2 expressions m RNA isolation was carried out using an RNeasy extraction kit, up to 1 X 107 cells. They were disrupted in Buffer RLT and homogenized. Ethanol was added to the lysate to promote the selective binding of RNA to the RNeasy membrane. Then, the sample was applied to the RNeasy […]
Mini spin column. Total RNA bound to the membrane. High-quality RNA was eluted using […]
(1 picture or pasted object on this page, not shown here)

[7] = read-out: GI50, subpanel average, ref https://dtp.cancer.gov/dtpstandard/dwindex/index.jsp
[8] = read-out: LC50, subpanel average, ref https://dtp.cancer.gov/dtpstandard/dwindex/index.jsp
[9] = ref https://dtp.cancer.gov/dtpstandard/dwindex/index.jsp
[10] = Homo sapiens, five concentrations

Cc1ccc(-c2cc(C(F)(F)F)nn2-c2ccc(S(N)(=O)=O)cc2)cc1 [Celecoxib, celecoxib]
GI50 (RXF 393): 15.8 µM
GI50 (BT-549): 19.9 µM
GI50 (SF-539): 19.9 µM
GI50 (K-562): 10 µM
GI50 (COLO 205): 15.8 µM
GI50 (HOP-62): 63.1 µM
GI50 [1, 7]: 19.9 µM
CC50 [1, 8]: 61.2 µM
TGI, subpanel average [1, 9]: 41.19 µM
GI50 (HCT-15): 15.8 µM
GI50 (SNB-19): 19.9 µM
GI50 (SF-295): 15.8 µM
GI50 [2, 7]: 22.5 µM
CC50 [2, 8]: 64.3 µM
TGI, subpanel average [2, 9]: 38.49 µM
GI50 (SR): 15.8 µM
GI50 (HS 578T): 19.9 µM
GI50 (OVCAR-4): 12.6 µM
GI50 (SK-OV-3): 19.9 µM
GI50 (PC-3): 12.6 µM
GI50 (T-47D): 15.8 µM
GI50 [3, 7]: 25.1 µM
CC50 [3, 8]: 67.1 µM
TGI, subpanel average [3, 9]: 41.93 µM
GI50 (M14): 63.1 µM
GI50 (UACC-62): 15.8 µM
GI50 (SW-620): 15.8 µM
GI50 (MOLT-4): 15.8 µM
GI50 (SK-MEL-2 [4]): 15.8 µM
GI50 [5, 7]: 14.2 µM
CC50 [5, 8]: 57 µM
TGI, subpanel average [5, 9]: 28.37 µM
GI50 (RPMI-8226): 3.98 µM
GI50 (NCI-H322M): 19.9 µM

CS(=O)(=O)Nc1ccc(C(=O)NN=Cc2ccccc2O)cc1 [Compound 7]
GI% (DU-145): 33%
GI% (SK-MEL-2 [6]): 22%
GI% (SN12C): 23%
Bax, Gene Expression (Fold Change) (Bax): 5.02 fold change

CCN(CC)c1ccc(C=NNC(=O)c2ccc(NS(C)(=O)=O)cc2)c(O)c1 [Compound 8]
GI% (DU-145): 69%
GI50 (DU-145; [10]): 0.685 µM
GI% (SK-MEL-2 [6]): 59%
GI50 (SK-MEL-2 [6]; [10]): 0.749 µM
GI% (SN12C): 69%
GI50 (SN12C; [10]): 0.603 µM
Bax, Gene Expression (Fold Change) (Bax): 5.456 fold change
